# Test results taken from patent publication US20230212170A1, “INHIBITORS OF KRAS G12C PROTEIN AND USES THEREOF” (SHANGHAI ANTENGENE CORPORATION LIMITED, priority 2020, published 2023).
# Biological target: KRAS G12C (Homo sapiens, UniProt P01116, G12C)
# Experiment: KRAS G12C nucleotide exchange assay (SOS1-mediated, mant-GDP fluorescence)
# Type: biochemical
# Parameters: KRas(1-169) G12C protein
# Settings: 15 min pre-incubation
# Protocol: Assay 1: KRAS G12C Nucleotide Exchange Assay
# 1×Loading buffer: 20 mM HEPES, pH 7.5, 50 mM NaCl, 0.5 mM MgCl2, 1 mM DTT, 5 mM EDTA
# 1×Equilibration buffer: 20 mM HEPES, pH 7.5, 150 mM NaCl, 1 mM MgCl2, 1 mM DTT
# 1×Assay buffer: 20 mM HEPES, pH 7.5, 150 mM NaCl, 1 mM MgCl2, 0.01% Tween-20, 1 mM DTT
# 2. Load Mant GDP to KRAS G12C:
# a. A mixed solution of 100 µL mant GDP and KRAS G12C was prepared with 1×loading buffer: 60 um KRAS G12C, 600 um […], incubated at room temperature for 60 minutes, and the reaction was carried out in dark conditions.
# b. Add 1 uL 1 m MgCl2 (final concentration 10 mm) to stop the reaction, mix the solution upside down in the centrifuge tube, centrifugate for 3-5 seconds, and incubate at room temperature for 30 minutes.
# c. At the same time of incubation for 30 minutes, balance nap-5 column with 10 ml ix equipment buffer until no liquid drops.
# d. Drop the mixed solution of 100 uL mant GDP and KRAS G12C into the center of nap-5 column. After the sample completely enters nap-5 column, add 400 µL 1× equipment buffer until no liquid drops.
# e. Add 500 ul 1× equipment buffer for elution and collect eluant.
# f. Determination of KRAS G12C mant GDP with Bradford protein quantitative Kit.
# 3. Nucleotide Exchange Experiment:
# a. Transfer 50 NL DMSO/compound to 384 well plate with echo550.
# b. 10 uL enzyme mix was added into 384 pore plate and incubated with DMSO/compound for 15 min.
# c. Initial reaction with 10 µL Sos1/GTP mix.
# d. Immediately after reaction, read ex360/em440 fluorescence value in kinetic mode with Nivo.
# a. Use Graphpad software to process data and draw pictures.
# b. K value is obtained in Graphpad software by fitting One phase experimental deck model.
# c. Z′=1-3*(SdKmax+SdKmin)/(AveKmax−AveKmin)
# d. In % is calculated by the following formula:
# Inh%=(Kmax−Ksample)/(Kmax−Kmin)*100
# Chain of KRAS G12C (P01116 1-169 isoform P01116-2 G12C): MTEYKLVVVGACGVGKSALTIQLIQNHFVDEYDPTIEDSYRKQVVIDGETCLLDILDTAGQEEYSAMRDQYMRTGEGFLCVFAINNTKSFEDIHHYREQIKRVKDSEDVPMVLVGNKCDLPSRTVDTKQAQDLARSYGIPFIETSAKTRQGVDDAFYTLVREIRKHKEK
row,Compound,IC50
1,"C=CC(=O)N1CCN(c2nc(OC[C@@H]3CCCN3C)nc3c(=O)n(-c4cccc5cccc(Cl)c45)c(C)nc23)CC1 [Compound 3, (S)-8-(4-acryloylpiperazin-1-yl)-3-(8-chloronaphthalen-1-yl)-2-methyl-6-((1-methylpyrrolidin-2-yl)methoxy)pyrimido[5,4-d]pyrimidin-4(3H)-one]",8.24 µM
2,"C=CC(=O)N1CCN(c2nc(OC[C@@H]3CCCN3C)nc3c(=O)n(-c4cccc5ccccc45)cnc23)CC1 [Compound 5, (S)-8-(4-acryloylpiperazin-1-yl)-6-((1-methylpyrrolidin-2-yl)methoxy)-3-(naphthalen-1-yl)pyrimido[5,4-d]pyrimidin-4(3H)-one]",52.3 µM
3,"C=CC(=O)N1CCN(c2nc(OC[C@@H]3CCCN3C)nc3c(=O)n(-c4cccc5cccc(C)c45)c(C)nc23)CC1 [Compound 6, (S)-8-(4-acryloylpiperazin-1-yl)-2-methyl-3-(8-methylnaphthalen-1-yl)-6-((1-methylpyrrolidin-2-yl)methoxy)pyrimido[5,4-d]pyrimidin-4(3H)-one]",1.78 µM
4,"C=CC(=O)N1C[C@H](C)N(c2nc(OC[C@@H]3CCCN3C)nc3c(=O)n(-c4cccc5cccc(Cl)c45)c(C)nc23)C[C@@H]1C [Compound 8, 8-((2S,5S)-4-acryloyl-2,5-dimethylpiperazin-1-yl)-3-(8-chloronaphthalen-1-yl)-2-methyl-6-(((S)-1-methylpyrrolidin-2-yl)methoxy)pyrimido[5,4-d]pyrimidin-4(3H)-one]",60.7 µM
5,"C=CC(=O)N1CCN(c2nc(OC[C@@H]3CCCN3C)nc3c(=O)n(-c4cccc5cccc(C(=C)C)c45)c(C)nc23)C[C@@H]1CC#N [Compound 11, 2-((S)-1-acryloyl-4-(6-methyl-2-(((S)-1-methylpyrrolidin-2-yl)methoxy)-8-oxo-7-(8-(prop-1-en-2-yl)naphthalen-1-yl)-7,8-dihydropyrimido[5,4-d]pyrimidin-4-yl)piperazin-2-yl)acetonitrile]",2.94 µM
6,"C=CC(=O)N1CCN(c2nc(OC[C@@H]3CCCN3C)nc3c(=O)n(-c4cccc5ncccc45)c(C)nc23)C[C@@H]1CC#N [Compound 15, 2-((S)-1-acryloyl-4-(6-methyl-2-(((S)-1-methylpyrrolidin-2-yl)methoxy)-8-oxo-7-(quinolin-5-yl)-7,8-dihydropyrimido[5,4-d]pyrimidin-4-yl)piperazin-2-yl)acetonitrile]",2.93 µM
7,"C=CC(=O)N1CCN(c2nc(OC[C@@H]3CCCN3C)nc3c(=O)n(-c4cccc5ccccc45)c(-c4ccccc4)nc23)CC1 [Compound 18, (S)-8-(4-acryloylpiperazin-1-yl)-6-((1-methylpyrrolidin-2-yl)methoxy)-3-(naphthalen-1-yl)-2-phenylpyrimido[5,4-d]pyrimidin-4(3H)-one]",9.97 µM
8,"C=CC(=O)N1CCN(c2nc(OC[C@@H]3CCCN3C)nc3c2CCCC(c2c(C)ccc4[nH]ncc24)C3)CC1 (stereo partly drawn) [Compound 20, 1-(4-(8-(5-methyl-1H-indazol-4-yl)-2-(((S)-1-methylpyrrolidin-2-yl)methoxy)-6,7,8,9-tetrahydro-5H-cyclohepta[d]pyrimidin-4-yl)piperazin-1-yl)prop-2-en-1-one]",2.88 µM
9,"C=CC(=O)N(C)C1CCN(c2nc(OC[C@@H]3CCCN3C)nc3c2CCN(c2cccc4cccc(Cl)c24)C3)C1 (stereo partly drawn) [Compound 21, N-(1-(7-(8-chloronaphthalen-1-yl)-2-(((S)-1-methylpyrrolidin-2-yl)methoxy)-5,6,7,8-tetrahydropyrido[3,4-d]pyrimidin-4-yl)pyrrolidin-3-yl)-N-methylacrylamide]",19 µM
10,"C=CC(=O)N1CCN(c2nc(OC[C@@H]3CCCN3C)nc3c(=O)n(-c4c(C)ccc5[nH]ncc45)c(C)nc23)CC1 [Compound 22, (S)-8-(4-acryloylpiperazin-1-yl)-2-methyl-3-(5-methyl-1H-indazol-4-yl)-6-((1-methylpyrrolidin-2-yl)methoxy)pyrimido[5,4-d]pyrimidin-4(3H)-one]",22.9 µM

# These reach a lower IC50. Values come first.
row,IC50,Compound
1,1.07 µM,"C=CC(=O)N1CCN(c2nc(OC[C@@H]3CCCN3C)nc3c(=O)n(-c4cccc5cccc(CC)c45)c(C)nc23)C[C@@H]1CC#N [Compound 9, 2-((S)-1-acryloyl-4-(7-(8-ethylnaphthalen-1-yl)-6-methyl-2-(((S)-1-methylpyrrolidin-2-yl)methoxy)-8-oxo-7,8-dihydropyrimido[5,4-d]pyrimidin-4-yl)piperazin-2-yl)acetonitrile]"
2,0.9 µM,"C=CC(=O)N1CCN(c2nc(OC[C@@H]3CCCN3C)nc3c(=O)n(-c4cc(OC)cc5ccccc45)c(C)nc23)C[C@@H]1CC#N [Compound 12, 2-((S)-1-acryloyl-4-(7-(3-methoxynaphthalen-1-yl)-6-methyl-2-(((S)-1-methylpyrrolidin-2-yl)methoxy)-8-oxo-7,8-dihydropyrimido[5,4-d]pyrimidin-4-yl)piperazin-2-yl)acetonitrile]"
3,0.86 µM,"C=CC(=O)N1CCN(c2nc(OC[C@@H]3CCCN3C)nc3c(=O)n(-c4cccc5ccccc45)c(CC)nc23)C[C@@H]1CC#N [Compound 14, 2-((S)-1-acryloyl-4-(6-ethyl-2-(((S)-1-methylpyrrolidin-2-yl)methoxy)-7-(naphthalen-1-yl)-8-oxo-7,8-dihydropyrimido[5,4-d]pyrimidin-4-yl)piperazin-2-yl)acetonitrile]"
4,0.84 µM,"C=CC(=O)N1CCN(c2nc(OC[C@@H]3CCCN3C)nc3c(=O)n(-c4cccc5cccc(C6CC6)c45)c(C)nc23)C[C@@H]1CC#N [Compound 10, 2-((S)-1-acryloyl-4-(7-(8-cyclopropylnaphthalen-1-yl)-6-methyl-2-(((S)-1-methylpyrrolidin-2-yl)methoxy)-8-oxo-7,8-dihydropyrimido [5,4-d]pyrimidin-4-yl)piperazin-2-yl)acetonitrile]"
5,0.82 µM,"C=CC(=O)N1CCN(c2nc(OC[C@@H]3CCCN3C)nc3c(=O)n(-c4c(C)c(C)cc5[nH]ncc45)c(C)nc23)C[C@@H]1CC#N [Compound 16, 2-((S)-1-acryloyl-4-(7-(5,6-dimethyl-1H-indazol-4-yl)-6-methyl-2-(((S)-1-methylpyrrolidin-2-yl)methoxy)-8-oxo-7,8-dihydropyrimido[5,4-d]pyrimidin-4-yl)piperazin-2-yl)acetonitrile]"
6,0.48 µM,"C=CC(=O)N1CCN(c2nc(OC[C@@H]3CCCN3C)nc3c(=O)n(-c4cccc5ccccc45)c(-c4ccccc4)nc23)C[C@@H]1CC#N [Compound 17, 2-((S)-1-acryloyl-4-(2-(((S)-1-methylpyrrolidin-2-yl)methoxy)-7-(naphthalen-1-yl)-8-oxo-6-phenyl-7,8-dihydropyrimido[5,4-d]pyrimidin-4-yl)piperazin-2-yl)acetonitrile]"
7,0.39 µM,"C=CC(=O)N1CCN(c2nc(OC[C@@H]3CCCN3C)nc3c(=O)n(-c4cccc5cccc(C)c45)c(C)nc23)C[C@@H]1CC#N [Compound 7, 2-((S)-1-acryloyl-4-(6-methyl-7-(8-methylnaphthalen-1-yl)-2-(((S)-1-methylpyrrolidin-2-yl)methoxy)-8-oxo-7,8-dihydropyrimido[5,4-d]pyrimidin-4-yl)piperazin-2-yl)acetonitrile]"
8,0.39 µM,"C=CC(=O)N1CCN(c2nc(OC[C@@H]3CCCN3C)nc3c(=O)n(-c4cccc5cccc(Cl)c45)c(CC)nc23)C[C@@H]1CC#N [Compound 13, 2-((S)-1-acryloyl-4-(7-(8-chloronaphthalen-1-yl)-6-ethyl-2-(((S)-1-methylpyrrolidin-2-yl)methoxy)-8-oxo-7,8-dihydropyrimido[5,4-d]pyrimidin-4-yl)piperazin-2-yl)acetonitrile]"
